Laboratory results: patent US9096589B2, “Heteroaromatic phenylimidazole derivatives as PDE10A enzyme inhibitors” (H. Lundbeck A/S, priority 2009, dated 2015)

Columns and labels:
rats [1] = conditions: cited from earlier work
rats [2] = conditions: cited from earlier work; remark: listed apart in the source
rats [3] = conditions: cited from earlier work; remark: listed apart in the source
PDE10A = PDE10A (Homo sapiens (Human), UniProt Q9Y233); assay: PDE10A inhibition assay; type: biochemical
Method in brief: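 Human PDE10A catalytic domain (aa 440-779) was expressed in E. coli BL21(DE3), with enzyme set to convert 20-25% of substrate. Reactions used 5 nM [3H]cAMP in 50 mM HEPES pH 7.6, 10 mM MgCl2, 0.02% Tween20 and 0.1 mg/ml BSA for 1 h at rt, read by yttrium silicate SPA. IC50 is relative to the uninhibited control.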

Sequence of PDE10A (Q9Y233 716-1055): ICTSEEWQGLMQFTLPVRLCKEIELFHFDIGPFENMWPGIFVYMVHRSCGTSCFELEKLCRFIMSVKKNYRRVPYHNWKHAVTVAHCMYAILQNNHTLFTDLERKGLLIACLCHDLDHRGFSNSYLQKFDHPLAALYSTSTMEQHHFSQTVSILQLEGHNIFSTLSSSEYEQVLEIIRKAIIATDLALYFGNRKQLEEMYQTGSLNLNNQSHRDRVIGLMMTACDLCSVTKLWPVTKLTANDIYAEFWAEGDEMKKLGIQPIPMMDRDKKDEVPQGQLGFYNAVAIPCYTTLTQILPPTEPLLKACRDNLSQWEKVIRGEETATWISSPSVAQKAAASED

| Structure (SMILES) | IC50 (PDE10A) | other results |
| --- | --- | --- |
| COc1ccc(Cc2nccc3cc(OC)c(OC)cc23)cc1OC [Papaverine, papaverine] | – | hyperactivity induced by PCP (rats [1]): reduced hyperactivity; reduction of amphetamine induced hyperactivity (rats [2]): insignificant; catalepsy on its own (rats [3]; alone): did not cause catalepsy on its own; effect on the cataleptic effect of the D2 receptor antagonist haloperidol (rats [3]; with haloperidol): potentiated the cataleptic effect |
| Cc1cccc2nc(CCc3nc(-c4cccs4)cn3C[C@@H](O)CN(C)CC#N)nn12 [[((S)-2-Hydroxy-3-{2-[2-(5-methyl-[1,2,4]triazolo[1,5-a]pyridin-2-yl)-ethyl]-4-thiophen-2-yl-imidazol-1-yl}-propyl)-methyl-amino]-acetonitrile] | 8.8 nM | – |
| Cc1cccn2nc(CCc3nc(-c4cccnc4)c[nH]3)nc12 [8-Methyl-2-[2-(4-pyridin-3-yl-1H-imidazol-2-yl)-ethyl]-[1,2,4]triazolo[1,5-a]pyridine] | 64 nM | – |
| Cc1cc(C)n2cc(CCc3nc(-c4ccsc4)cn3C)nc2n1 [5,7-Dimethyl-2-[2-(1-methyl-4-thiophen-3-yl-1H-imidazol-2-yl)-ethyl]-imidazo[1,2-a]pyrimidine] | 33 nM | – |
| Cc1cc(C)n2cc(/C=C/c3nc(-c4ccoc4)cn3C)nc2n1 [2-[(E)-2-(4-Furan-3-yl-1-methyl-1H-imidazol-2-yl)-vinyl]-5,7-dimethyl-imidazo[1,2-a]pyrimidine] | 140 nM | – |
| Cc1cccc2nc(CCc3nc(-c4cccnc4)c[nH]3)nn12 [5-Methyl-2-[2-(4-pyridin-3-yl-1H-imidazol-2-yl)-ethyl]-[1,2,4]triazolo[1,5-a]pyridine] | 9.6 nM | – |
| CCCn1cc(-c2cccs2)nc1CCc1cn2c(C)cc(C)nc2n1 [5,7-Dimethyl-2-[2-(1-propyl-4-thiophen-2-yl-1H-imidazol-2-yl)-ethyl]-imidazo[1,2-a]pyrimidine] | 3.4 nM | – |
| Cc1cccc2nc(CCc3nc(-c4cccs4)cn3C[C@@H](O)CNCCO)nn12 [(S)-1-(2-Hydroxy-ethylamino)-3-{2-[2-(5-methyl-[1,2,4]triazolo[1,5-a]pyridin-2-yl)-ethyl]-4-thiophen-2-yl-imidazol-1-yl}-propan-2-ol] | 30 nM | – |
| COc1cccn2nc(/C=C/c3nc(-c4ccoc4)cn3C)nc12 [2-[(E)-2-(4-Furan-3-yl-1-methyl-1H-imidazol-2-yl)-vinyl]-8-methoxy-[1,2,4]triazolo[1,5-a]pyridine] | 47 nM | – |
| Cc1cscc1-c1c[nH]c(CCc2nc3cccc(C)n3n2)n1 [5-Methyl-2-{2-[4-(4-methyl-thiophen-3-yl)-1H-imidazol-2-yl]-ethyl}-[1,2,4]triazolo[1,5-a]pyridine] | 45 nM | – |
| CCN(CC)C[C@H](O)Cn1cc(-c2cccs2)nc1CCc1nc2cccc(C)n2n1 [(S)-1-Diethylamino-3-{2-[2-(5-methyl-[1,2,4]triazolo[1,5-a]pyridin-2-yl)-ethyl]-4-thiophen-2-yl-imidazol-1-yl}-propan-2-ol] | 77 nM | – |
| COc1cccn2nc(CCc3nc(-c4cscc4C)cn3C)nc12 [8-Methoxy-2-{2-[1-methyl-4-(4-methyl-thiophen-3-yl)-1H-imidazol-2-yl]-ethyl}-[1,2,4]triazolo[1,5-a]pyridine] | 37 nM | – |
| Cn1cc(-c2cccs2)nc1CCc1nc2c(F)cccn2n1 [8-Fluoro-2-[2-(1-methyl-4-thiophen-2-yl-1H-imidazol-2-yl)-ethyl]-[1,2,4]triazolo[1,5-a]pyridine] | 47 nM | – |
| Cc1cccn2nc(CCc3nc(-c4cccs4)c[nH]3)nc12 [8-Methyl-2-[2-(4-thiophen-2-yl-1H-imidazol-2-yl)-ethyl]-[1,2,4]triazolo[1,5-a]pyridine] | 0.99 nM | – |
| Cc1cc(C)n2cc(/C=C/c3nc(-c4cccnc4)cn3C)nc2n1 [5,7-Dimethyl-2-[(E)-2-(1-methyl-4-pyridin-3-yl-1H-imidazol-2-yl)-vinyl]-imidazo[1,2-a]pyrimidine] | 220 nM | – |
| Cc1ccc(-c2cn(C)c(CCc3nc4c(F)cccn4n3)n2)o1 [8-Fluoro-2-{2-[1-methyl-4-(5-methyl-furan-2-yl)-1H-imidazol-2-yl]-ethyl}-[1,2,4]triazolo[1,5-a]pyridine] | 94 nM | – |
| Cc1cccn2nc(CCc3nc(-c4cncs4)cn3C)nc12 [8-Methyl-2-[2-(1-methyl-4-thiazol-5-yl-1H-imidazol-2-yl)-ethyl]-[1,2,4]triazolo[1,5-a]pyridine] | 36 nM | – |
| Cc1ncc(C)n2nc(CCc3nc(-c4ccoc4)cn3C)nc12 [2-[2-(4-Furan-3-yl-1-methyl-1H-imidazol-2-yl)-ethyl]-5,8-dimethyl-[1,2,4]triazolo[1,5-a]pyrazine] | 2.9 nM | – |
| Cc1cc(C)n2cc(CCc3nc(-c4cccs4)cn3[C@@H](C)CO)nc2n1 [(S)-2-{2-[2-(5,7-Dimethyl-imidazo[1,2-a]pyrimidin-2-yl)-ethyl]-4-thiophen-2-yl-imidazol-1-yl}-propan-1-ol] | 8.8 nM | – |
| Cc1cc(C)n2cc(CCc3nc(-c4cccs4)cn3C)nc2n1 [5,7-Dimethyl-2-[2-(1-methyl-4-thiophen-2-yl-1H-imidazol-2-yl)-ethyl]-imidazo[1,2-a]pyrimidine] | 45 nM | – |
| COc1ccc(C)n2nc(CCc3nc(-c4ccc(C)o4)cn3C)nc12 [8-Methoxy-5-methyl-2-{2-[1-methyl-4-(5-methyl-furan-2-yl)-1H-imidazol-2-yl]-ethyl}-[1,2,4]triazolo[1,5-a]pyridine] | 20 nM | – |
| Cn1cc(-c2cncs2)nc1/C=C/c1nc2c(F)cccn2n1 [8-Fluoro-2-[(E)-2-(1-methyl-4-thiazol-5-yl-1H-imidazol-2-yl)-vinyl]-[1,2,4]triazolo[1,5-a]pyridine] | 300 nM | – |
| COc1cccn2nc(/C=C/c3nc(-c4cncs4)cn3C)nc12 [8-Methoxy-2-[(E)-2-(1-methyl-4-thiazol-5-yl-1H-imidazol-2-yl)-vinyl]-[1,2,4]triazolo[1,5-a]pyridine] | 85 nM | – |
| Cc1ncc(C)n2nc(CCc3nc(-c4cscn4)cn3C)nc12 [5,8-Dimethyl-2-[2-(1-methyl-4-thiazol-4-yl-1H-imidazol-2-yl)-ethyl]-[1,2,4]triazolo[1,5-a]pyrazine] | 1.29 nM | – |
| COc1cccn2nc(/C=C/c3nc(-c4cccs4)cn3C)nc12 [8-Methoxy-2-[(E)-2-(1-methyl-4-thiophen-2-yl-1H-imidazol-2-yl)-vinyl]-[1,2,4]triazolo[1,5-a]pyridine] | 62 nM | – |
| Cc1cc(C)n2cc(CCc3nc(-c4cccs4)cn3C(C)C)nc2n1 [2-[2-(1-Isopropyl-4-thiophen-2-yl-1H-imidazol-2-yl)-ethyl]-5,7-dimethyl-imidazo[1,2-a]pyrimidine] | 160 nM | – |
| Cc1ncc(C)n2nc(CCc3nc(-c4ccncc4)cn3C)nc12 [5,8-Dimethyl-2-[2-(1-methyl-4-pyridin-4-yl-1H-imidazol-2-yl)-ethyl]-[1,2,4]triazolo[1,5-a]pyrazine] | 0.55 nM | – |
| COc1ccc(C)n2nc(CCc3nc(-c4cscc4C)cn3C)nc12 [8-Methoxy-5-methyl-2-{2-[1-methyl-4-(4-methyl-thiophen-3-yl)-1H-imidazol-2-yl]-ethyl}-[1,2,4]triazolo[1,5-a]pyridine] | 3.1 nM | – |
| Cc1cccc2nc(CCc3nc(-c4cncs4)cn3C)nn12 [5-Methyl-2-[2-(1-methyl-4-thiazol-5-yl-1H-imidazol-2-yl)-ethyl]-[1,2,4]triazolo[1,5-a]pyridine] | 39 nM | – |
